Data reported in patent publication US9889155B2, “Enhancer of anti-tumor effect of anti-cancer agent” (priority 2014, dated 2018).
Values after ≈ are worked out from the molar mass of the structure shown. Where a name gives a salt, the structure may show the parent alone.

Assays:
[1] = test system: human colorectal cancer cell line HT29 subcutaneous tumor; test: Doxorubicin accumulation in HT29 subcutaneous tumors, IVIS Spectrum fluorescent imaging (Example 7); format: in vivo, BALB/cA nude mice; conditions: HT29 tumor mice; doxorubicin hydrochloride 1.5 mg/mouse via tail vein; tumors removed after 2 hours; sCA(2) particles 3 hours before, where used; FIG. 9
Description: At the time when the tumors reached about 10 mm in diameter, the mice were randomly divided into the two groups shown in Table 5, and each group was administered the drug. After 2 hours from the drug administration, tumors were removed from the mice, and doxorubicin hydrochloride accumulated in the tumors was detected by fluorescent imaging using the IVIS Spectrum. For doxorubicin (DOX), detection of fluorescence wavelength has been confirmed by the IVIS Spectrum (FIG. 8).

[2] = test system: Human colorectal cancer cells (HCT116); test: IC50 of 5-fluorouracil against HCT116 cells with or without sCA particles, cell count (Example 1); format: cell-based; conditions: sCA(1) particles added 24 hours before, where used
Description: At 24, 48, and 72 hours after the addition of 5-fluorouracil, the number of cells was counted, and IC50 (concentration of 5-fluorouracil that kills 50% of the cancer cells) values were determined.

[3] = test system: Human colorectal cancer cells (HCT116); test: IC50 of anticancer agents against HCT116 cells with or without sCA particles, cell count at 48 hours (Example 2); format: cell-based
Description: At 48 hours after the addition of each of the anticancer agents, the number of cells was counted, and the IC50 (concentration of 5-fluorouracil that kills 50% of the cancer cells) value was determined.

[4] = Homo sapiens, HCT-116, 48 hours after addition of anticancer agent, With sCA particles, read-out: IC50 (mean ± SD), With sCA particles
[5] = Homo sapiens, HCT-116, 48 hours after addition of anticancer agent, Without sCA particles, read-out: IC50 (mean ± SD), Without sCA particles
[6] = 48 hours after addition of anticancer agent, With sCA particles, read-out: IC50 (mean ± SD), With sCA particles
[7] = 48 hours after addition of anticancer agent, Without sCA particles, read-out: IC50 (mean ± SD), Without sCA particles

IC50 [3, 4] [µM]	IC50 [3, 5] [µM]	SMILES	IC50 [3, 6] [µM]	IC50 [3, 7] [µM]	also measured
		COc1cccc2c1C(=O)c1c(O)c3c(c(O)c1C2=O)C[C@@](O)(C(=O)CO)C[C@@H]3O[C@H]1C[C@H](N)[C@H](O)[C@H](C)O1 [doxorubicin hydrochloride]			doxorubicin accumulated in the tumor (fluorescent imaging) [1]: only a small amount of doxorubicin was detected in the tumor
74.6 ± 10	11.7 ± 2	O=c1[nH]cc(F)c(=O)[nH]1 [5-fluorouracil]			IC50 ([2]; HCT-116, 24 hours after addition of 5-fluorouracil, read-out: IC50 (mean ± SD), After 24 hr): 215 ± 141 µg/mL (≈ 1650 µM); IC50 ([2]; HCT-116, 48 hours after addition of 5-fluorouracil, read-out: IC50 (mean ± SD), After 48 hr): 4.07 ± 0.473 µg/mL (≈ 31.3 µM); IC50 ([2]; HCT-116, 72 hours after addition of 5-fluorouracil, read-out: IC50 (mean ± SD), After 72 hr): 2.64 ± 0.696 µg/mL (≈ 20.3 µM)
0.00917 ± 0.00042	0.000353 ± 7e-05	CC(=O)O[C@@]12CO[C@@H]1C[C@H](O)[C@@]1(C)C(=O)[C@H](O)C3=C(C)[C@@H](OC(=O)[C@H](O)[C@@H](NC(=O)OC(C)(C)C)c4ccccc4)C[C@@](O)([C@@H](OC(=O)c4ccccc4)[C@H]21)C3(C)C [Docetaxel, docetaxel]			
		N.N.[Cl][Pt][Cl] [Cisplatin, cisplatin]	39.2 ± 2.7	31.3 ± 0.9	
		O=C1[O][Pt]2([NH][C@@H]3CCCC[C@H]3[NH]2)[O]C1=O [Oxaliplatin, oxaliplatin]	31.3 ± 2.2	3.7 ± 1.1	
